What was measured:
[1] = target: MST1R (Homo sapiens, UniProt Q04912); assay: Mobility shift assay, MST1R kinase inhibition; assay type: biochemical; conditions: mean of two independent experiments
Method: (§1) Kinase inhibitory activity against HGFR, MST1R, ABL, PDGFRβ, AXL, FLT3, RET, c-Src, and VEGFR-2 was evaluated by the mobility shift assay. Detailed operation could be found in our previous research.

[2] = system: HT-29 cells; assay: MTT assay, cytotoxic activity against HT-29; assay type: cell-based, human; conditions: Homo sapiens, HT-29, average of three separate determinations, SD shown
From the text: (§2) Taking lead compound BC2021-104511-15i, Fruquintinib and Regorafenib as positive controls, the cytotoxic activity against HT-29, HCT-116, COLO-205 and FHC cell lines by MTT assay. Detailed operation could be found in our previous study.

[3] = system: HCT-116 cells; assay: MTT assay, cytotoxic activity against HCT-116; assay type: cell-based; conditions: Homo sapiens, average of three separate determinations, SD shown
From the text: as §2

[4] = system: COLO 205 cells; assay: MTT assay, cytotoxic activity against COLO 205; assay type: cell-based
From the text: as §2

[5] = MTT assay, cytotoxicity against FHC cells; assay type: cell-based; conditions: FHC cells (normal colorectal mucosa epithelial cells); human normal colorectal mucosa epithelial cells; average of three separate determinations
Method: In order to investigate the cell selectivity index, the cytotoxicity of potent compounds against human normal colorectal mucosa epithelial cell FHC cells was determined.
as §2

[6] = target: ABL (Homo sapiens, UniProt P00519); assay: Mobility shift assay, ABL; assay type: biochemical; conditions: mean of two independent experiments, SD shown
Sequence of ABL (P00519 whole entry): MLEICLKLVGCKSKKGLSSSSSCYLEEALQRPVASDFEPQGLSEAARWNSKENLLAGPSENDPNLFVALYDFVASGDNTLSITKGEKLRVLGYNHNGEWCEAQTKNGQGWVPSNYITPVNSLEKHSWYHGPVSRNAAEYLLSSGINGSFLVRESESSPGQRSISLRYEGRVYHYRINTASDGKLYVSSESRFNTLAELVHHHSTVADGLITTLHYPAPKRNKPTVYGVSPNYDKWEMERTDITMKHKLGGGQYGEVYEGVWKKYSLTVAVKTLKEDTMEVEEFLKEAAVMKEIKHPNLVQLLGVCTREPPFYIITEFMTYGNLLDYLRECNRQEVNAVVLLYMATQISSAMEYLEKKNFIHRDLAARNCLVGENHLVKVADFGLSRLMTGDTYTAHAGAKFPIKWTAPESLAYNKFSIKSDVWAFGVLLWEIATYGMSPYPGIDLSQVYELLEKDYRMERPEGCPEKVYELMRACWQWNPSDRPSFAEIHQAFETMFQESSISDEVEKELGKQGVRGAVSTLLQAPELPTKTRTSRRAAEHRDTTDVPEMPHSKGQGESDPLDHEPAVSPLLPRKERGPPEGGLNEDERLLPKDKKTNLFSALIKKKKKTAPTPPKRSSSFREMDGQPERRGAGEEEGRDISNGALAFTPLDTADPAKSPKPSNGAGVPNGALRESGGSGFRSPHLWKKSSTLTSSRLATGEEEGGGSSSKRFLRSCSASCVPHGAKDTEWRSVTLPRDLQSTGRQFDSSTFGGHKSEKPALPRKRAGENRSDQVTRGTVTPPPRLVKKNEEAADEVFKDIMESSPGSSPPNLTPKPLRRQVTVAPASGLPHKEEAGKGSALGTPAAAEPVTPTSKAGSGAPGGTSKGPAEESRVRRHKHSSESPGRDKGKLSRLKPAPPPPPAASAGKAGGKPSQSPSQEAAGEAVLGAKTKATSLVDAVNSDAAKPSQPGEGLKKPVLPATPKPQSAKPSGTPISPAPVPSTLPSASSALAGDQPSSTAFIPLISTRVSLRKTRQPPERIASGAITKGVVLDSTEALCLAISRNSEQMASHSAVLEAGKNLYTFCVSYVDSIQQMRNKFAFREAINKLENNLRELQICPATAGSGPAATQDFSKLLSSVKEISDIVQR
Method: as §1

[7] = target: RET (Homo sapiens, UniProt P07949); assay: Mobility shift assay, RET; assay type: biochemical; conditions: mean of two independent experiments, SD shown
Sequence of RET (P07949 29-1114): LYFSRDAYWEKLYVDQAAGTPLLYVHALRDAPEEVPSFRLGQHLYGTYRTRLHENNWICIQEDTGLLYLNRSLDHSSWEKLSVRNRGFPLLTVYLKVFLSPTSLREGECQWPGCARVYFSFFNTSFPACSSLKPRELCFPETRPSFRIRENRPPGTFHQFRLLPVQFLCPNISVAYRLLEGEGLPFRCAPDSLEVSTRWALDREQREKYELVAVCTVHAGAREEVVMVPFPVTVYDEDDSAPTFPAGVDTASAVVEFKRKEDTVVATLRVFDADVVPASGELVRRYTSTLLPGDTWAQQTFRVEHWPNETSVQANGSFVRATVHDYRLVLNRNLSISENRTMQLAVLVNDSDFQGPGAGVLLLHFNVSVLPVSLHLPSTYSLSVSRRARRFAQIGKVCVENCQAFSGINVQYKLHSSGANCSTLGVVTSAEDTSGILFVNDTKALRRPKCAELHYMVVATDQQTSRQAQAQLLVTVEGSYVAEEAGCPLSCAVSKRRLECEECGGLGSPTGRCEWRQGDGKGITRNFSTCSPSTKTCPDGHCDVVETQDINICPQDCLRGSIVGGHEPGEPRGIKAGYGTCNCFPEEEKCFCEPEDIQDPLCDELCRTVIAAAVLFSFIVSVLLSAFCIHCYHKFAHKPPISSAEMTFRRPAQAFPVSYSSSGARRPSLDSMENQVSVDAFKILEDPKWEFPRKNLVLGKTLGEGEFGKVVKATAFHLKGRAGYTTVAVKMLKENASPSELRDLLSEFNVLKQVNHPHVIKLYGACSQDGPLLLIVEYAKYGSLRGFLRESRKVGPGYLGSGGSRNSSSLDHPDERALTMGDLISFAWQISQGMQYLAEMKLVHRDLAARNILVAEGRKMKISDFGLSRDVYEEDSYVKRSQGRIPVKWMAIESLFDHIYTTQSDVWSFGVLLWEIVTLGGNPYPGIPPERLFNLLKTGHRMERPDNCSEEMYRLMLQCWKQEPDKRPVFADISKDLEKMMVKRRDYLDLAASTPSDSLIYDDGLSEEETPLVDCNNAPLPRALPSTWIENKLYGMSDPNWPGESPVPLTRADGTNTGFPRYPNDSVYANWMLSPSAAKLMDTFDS
Method: as §1

[8] = target: T1, FLT3 (Homo sapiens, UniProt P36888); assay: Mobility shift assay, FLT3; assay type: biochemical; conditions: mean of two independent experiments, SD shown
T1 sequence (P36888 27-993): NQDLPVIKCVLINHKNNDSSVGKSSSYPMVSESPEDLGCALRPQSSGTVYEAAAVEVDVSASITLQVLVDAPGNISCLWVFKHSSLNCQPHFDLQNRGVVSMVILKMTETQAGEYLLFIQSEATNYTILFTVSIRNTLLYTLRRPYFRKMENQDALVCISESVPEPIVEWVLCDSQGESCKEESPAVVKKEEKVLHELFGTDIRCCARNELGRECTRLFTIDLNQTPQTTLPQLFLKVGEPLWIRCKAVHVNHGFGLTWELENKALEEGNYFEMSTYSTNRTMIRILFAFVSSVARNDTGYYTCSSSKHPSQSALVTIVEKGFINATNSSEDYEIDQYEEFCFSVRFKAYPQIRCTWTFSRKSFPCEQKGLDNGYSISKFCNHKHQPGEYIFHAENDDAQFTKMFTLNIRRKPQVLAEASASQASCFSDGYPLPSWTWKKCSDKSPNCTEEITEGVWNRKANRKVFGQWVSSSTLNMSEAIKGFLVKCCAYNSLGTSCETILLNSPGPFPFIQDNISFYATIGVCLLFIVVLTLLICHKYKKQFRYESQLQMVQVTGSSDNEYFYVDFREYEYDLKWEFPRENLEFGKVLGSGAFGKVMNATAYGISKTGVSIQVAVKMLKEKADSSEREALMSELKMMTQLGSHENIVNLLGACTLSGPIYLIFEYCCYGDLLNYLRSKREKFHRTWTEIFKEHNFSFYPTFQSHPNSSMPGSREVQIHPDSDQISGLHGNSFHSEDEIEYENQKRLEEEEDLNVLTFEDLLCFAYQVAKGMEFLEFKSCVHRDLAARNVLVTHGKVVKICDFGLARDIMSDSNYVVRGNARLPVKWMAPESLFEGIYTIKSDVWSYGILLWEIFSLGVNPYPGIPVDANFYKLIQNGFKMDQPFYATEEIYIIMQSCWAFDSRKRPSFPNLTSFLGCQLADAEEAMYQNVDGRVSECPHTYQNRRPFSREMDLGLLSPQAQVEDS
Method: as §1

[9] = target: PDGFRβ (Homo sapiens, UniProt P09619); assay: Mobility shift assay, PDGFRβ; assay type: biochemical; conditions: mean of two independent experiments, SD shown
Method: as §1

[10] = target: VEGFR-2 (Homo sapiens, UniProt P35968); assay: Mobility shift assay, VEGFR-2; assay type: biochemical; conditions: mean of two independent experiments, SD shown
Method: as §1

[11] = target: c-Src (Homo sapiens, UniProt P12931); assay: Mobility shift assay, c-Src; assay type: biochemical; conditions: mean of two independent experiments, SD shown
Sequence of c-Src (P12931 whole entry): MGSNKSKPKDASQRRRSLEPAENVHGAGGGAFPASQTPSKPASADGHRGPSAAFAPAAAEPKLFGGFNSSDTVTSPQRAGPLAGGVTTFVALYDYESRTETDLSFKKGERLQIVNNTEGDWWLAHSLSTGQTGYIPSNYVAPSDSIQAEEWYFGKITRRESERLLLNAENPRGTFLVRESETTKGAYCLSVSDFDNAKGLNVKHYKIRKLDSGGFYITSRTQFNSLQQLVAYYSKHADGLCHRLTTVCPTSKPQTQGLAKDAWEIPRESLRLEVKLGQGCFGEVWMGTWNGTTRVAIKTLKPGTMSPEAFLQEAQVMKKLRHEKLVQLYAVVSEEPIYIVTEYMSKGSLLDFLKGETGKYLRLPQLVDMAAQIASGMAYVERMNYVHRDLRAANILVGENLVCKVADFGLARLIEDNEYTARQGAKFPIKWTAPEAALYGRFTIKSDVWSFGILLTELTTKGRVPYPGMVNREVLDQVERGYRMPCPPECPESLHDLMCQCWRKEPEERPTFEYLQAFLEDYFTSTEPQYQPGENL
Method: as §1

[12] = system: COLO 205 cells; assay: Annexin V-FITC/PI apoptosis assay by flow cytometry; assay type: cell-based; conditions: 72 h; for total apoptosis (early apoptosis and advanced apoptosis): mean of three independent determinations
Method: Quantitative analysis of early-apoptotic cells, advanced-apoptotic cells and necrotic cells was determined. COLO 205 cells were stimulated with different concentrations of compound 10a for 72 h. […] The total apoptosis including early apoptosis and advanced apoptosis accounted for 58.8%, 29.3% and 21.0% (the mean value of three independent determinations) when COLO 205 cells were treated with compound 10a at the concentration of 1.0 μM, 0.33 μM and 0.11 μM, respectively.
COLO 205 cells (2.5 × 10^5) were seeded in two 12-well plates and treated with DMSO and compound 10a (0.11 μM, 0.33 μM and 1.0 μM) for 72 h (37 °C, 5% CO2). The cells were collected, centrifuged at 1000 rpm for 5 min, and then washed with cold PBS for twice. Apoptosis assays were conducted with CytoFLEX S (Beckman Coulter).

[13] = system: COLO 205 cells; assay: Cell cycle arrest assay by flow cytometry; assay type: cell-based; conditions: COLO 205, 0.33 μM and 0.11 μM, 24 h
Method: The antiproliferative activity of compound 10a was evaluated by flowcytometry analysis of COLO 205 cells. COLO 205 cells were treated with different concentrations (1.0 μM, 0.33 μM and 0.11 μM) of compound 10a for 24 h. […] At the concentration of 1.0 μM, cell cycle arrest could not be determined due to the massive dead cells (data not shown).
COLO 205 cells (2.5 × 10^5) were seeded in two 12-well plates and treated with DMSO and compound 10a (0.11 μM, 0.33 μM and 1.0 μM) for 24 h (37 °C, 5% CO2). Cells were collected, centrifuged at 1000 rpm for 5 min, washed with cold PBS for twice, and then fixed with 500 μL 75% cold ethanol at 4 °C. The cells were washed with cold PBS and stained with propidium iodide for 30 min in the dark. Cell-cycle analyses were conducted with Cytoflex S (Beckman Coulter).

Sequence of MST1R (Q04912 25-1400): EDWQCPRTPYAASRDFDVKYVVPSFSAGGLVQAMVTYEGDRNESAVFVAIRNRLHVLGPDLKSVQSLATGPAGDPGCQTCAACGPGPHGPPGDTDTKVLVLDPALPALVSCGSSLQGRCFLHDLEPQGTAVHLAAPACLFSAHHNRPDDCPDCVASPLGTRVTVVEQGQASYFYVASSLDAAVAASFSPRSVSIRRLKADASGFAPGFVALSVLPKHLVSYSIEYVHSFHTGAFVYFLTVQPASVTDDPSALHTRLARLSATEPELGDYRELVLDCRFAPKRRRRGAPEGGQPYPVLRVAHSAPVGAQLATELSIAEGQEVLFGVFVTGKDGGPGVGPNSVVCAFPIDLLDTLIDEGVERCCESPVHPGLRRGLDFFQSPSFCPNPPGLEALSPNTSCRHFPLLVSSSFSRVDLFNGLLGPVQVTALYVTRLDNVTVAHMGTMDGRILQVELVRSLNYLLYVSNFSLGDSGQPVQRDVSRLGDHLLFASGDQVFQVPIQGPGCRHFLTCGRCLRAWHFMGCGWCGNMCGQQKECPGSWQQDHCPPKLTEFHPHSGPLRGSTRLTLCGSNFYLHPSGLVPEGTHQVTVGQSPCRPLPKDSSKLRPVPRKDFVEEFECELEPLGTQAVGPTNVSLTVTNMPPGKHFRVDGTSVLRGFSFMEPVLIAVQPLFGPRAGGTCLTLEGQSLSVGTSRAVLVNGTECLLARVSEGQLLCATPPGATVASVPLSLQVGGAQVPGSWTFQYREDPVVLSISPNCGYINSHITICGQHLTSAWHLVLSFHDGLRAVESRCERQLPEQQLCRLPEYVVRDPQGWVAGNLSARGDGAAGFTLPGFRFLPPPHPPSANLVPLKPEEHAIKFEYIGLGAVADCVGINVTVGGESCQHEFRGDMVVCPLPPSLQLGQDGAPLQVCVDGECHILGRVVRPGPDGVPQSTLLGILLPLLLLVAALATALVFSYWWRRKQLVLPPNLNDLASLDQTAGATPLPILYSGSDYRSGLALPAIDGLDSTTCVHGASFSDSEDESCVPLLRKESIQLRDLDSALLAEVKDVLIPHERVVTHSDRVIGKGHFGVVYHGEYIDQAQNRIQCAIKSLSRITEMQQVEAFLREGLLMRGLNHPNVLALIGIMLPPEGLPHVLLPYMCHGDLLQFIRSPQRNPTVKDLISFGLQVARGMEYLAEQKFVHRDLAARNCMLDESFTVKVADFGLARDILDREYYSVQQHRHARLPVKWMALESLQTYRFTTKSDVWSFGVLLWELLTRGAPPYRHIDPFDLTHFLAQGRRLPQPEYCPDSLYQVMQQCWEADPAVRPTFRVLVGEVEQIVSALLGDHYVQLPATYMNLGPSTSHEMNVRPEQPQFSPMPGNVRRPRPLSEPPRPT

## COc1cc2c(Oc3ccc(NC(=O)NN4C(=O)CSC4c4c(F)cccc4F)cc3F)ccnc2cc1OC1CCN(CC(N)=O)CC1 (stereo not drawn) [Compound 10a, 2–(4-((4–(4-(3–(2-(2,6-Difluorophenyl)-4-oxothiazolidin-3-yl)ureido)-2-fluorophenoxy)-6-methoxyquinolin-7-yl)oxy)piperidin-1-yl)acetamide]
[1]
  IC50: 0.045 µM
[2]
  IC50: 1.3 ± 0.11 µM
[3]
  IC50: 0.87 ± 0.11 µM
[4]; COLO 205 IC50 compared with Regorafenib and Fruquintinib
  fold more potent than Regorafenib and Fruquintinib against COLO 205: over 90 fold
[4]; COLO 205 relative to FHC cells
  cell selectivity index (FHC IC50 value vs COLO 205 IC50 value): over 90 fold
[4]; Homo sapiens, COLO 205, MTT, average of three separate determinations, SD shown
  IC50: 0.11 ± 0.024 µM
[5]
  IC50: > 10 µM
[6]
  IC50: 1.68 ± 0.13 µM
[7]
  IC50: 1.27 ± 0.1 µM
[8]
  IC50: 6.93 ± 0.73 µM
[9]
  IC50: 1.13 ± 0.12 µM
[10]
  IC50: 1.16 ± 0.11 µM
[11]
  IC50: 0.42 ± 0.035 µM
[12]; COLO 205, 0.11 μM
  total apoptosis (early apoptosis and advanced apoptosis): 21.0%
[12]; COLO 205, 0.33 μM
  total apoptosis (early apoptosis and advanced apoptosis): 29.3%
[12]; COLO 205, 1.0 μM
  total apoptosis (early apoptosis and advanced apoptosis): 58.8%
[12]; COLO 205, 0.11–1.0 μM
  induction of apoptosis: could effectively induce COLO 205 cells apoptosis in a dose-dependent manner
[13]
  cell cycle arrest: could not arrest the cell-cycle progression

— publication PMC9448386, “Discovery of novel conjugates of quinoline and thiazolidinone urea as potential anti-colorectal cancer agent” (Journal of Enzyme Inhibition and Medicinal Chemistry, 2022)
